{"source": "patent US20110251104A1", "about": "“COMPOSITIONS AND METHODS FOR DETECTING DEACETYLASE ACTIVITY” (priority 2010, published 2011)", "molecular_target": "T1, Sirt1 (Homo sapiens, UniProt Q96EB6)", "T1 construct": "purchased", "T1 sequence (Q96EB6 1-747)": "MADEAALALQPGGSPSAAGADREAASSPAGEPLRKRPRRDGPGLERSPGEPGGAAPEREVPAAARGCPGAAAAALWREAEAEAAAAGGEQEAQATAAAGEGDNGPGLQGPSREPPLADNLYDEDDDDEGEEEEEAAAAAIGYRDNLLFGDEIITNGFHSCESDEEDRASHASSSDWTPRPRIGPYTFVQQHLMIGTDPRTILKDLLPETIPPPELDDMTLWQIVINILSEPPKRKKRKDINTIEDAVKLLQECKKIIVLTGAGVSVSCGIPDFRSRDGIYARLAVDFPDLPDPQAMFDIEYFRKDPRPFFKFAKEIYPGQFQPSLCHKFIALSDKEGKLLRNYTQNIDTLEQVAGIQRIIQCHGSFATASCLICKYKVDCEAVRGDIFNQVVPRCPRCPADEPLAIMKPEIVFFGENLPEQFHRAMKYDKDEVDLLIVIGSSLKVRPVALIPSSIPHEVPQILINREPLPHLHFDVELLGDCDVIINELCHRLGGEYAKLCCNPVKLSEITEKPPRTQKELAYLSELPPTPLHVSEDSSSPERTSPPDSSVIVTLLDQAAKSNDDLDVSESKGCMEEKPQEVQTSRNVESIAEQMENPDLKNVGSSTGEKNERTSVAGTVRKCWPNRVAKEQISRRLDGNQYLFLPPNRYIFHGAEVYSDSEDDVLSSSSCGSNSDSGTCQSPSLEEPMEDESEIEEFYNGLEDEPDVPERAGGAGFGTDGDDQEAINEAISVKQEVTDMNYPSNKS", "assay": "Km determination for SIRT1 substrates by RapidFire mass spectrometric quantification of acetyl-ADPr", "assay_type": "biochemical", "settings": "room temperature, 50 mM Tris pH 7.5, 1/1500 dilution of enzyme, acetyl-ADPr detection", "from_the_text": "A high-throughput in vitro assay using the current invention was developed against a commercially available SIRT1 enzyme preparation. The assay was then used to fully characterize the enzyme preparation through a series of kinetic and end-point assays. Commercially available ADP-ribose was used to develop mass spectrometric methods and separation techniques for sensitive and selective detection in the assay. A quantitative analysis method for acetyl-ADPr, a compound that has a chemical structure and properties similar to ADP-ribose, was developed based on the method developed for ADP-ribose.\nNext, ADP-ribose was dissolved at a concentration of 1.0 micromolar in an assay buffer consisting of 50 mM Tris pH 7.5 containing 137 mM NaCl, 2.7 mM KCl, 1 mM MgCl2, 0.1% BSA, 1 mM NAD^+. Separation conditions to purify ADP-ribose from the assay buffer for mass spectrometric analysis were developed on a RapidFire® 200 High-Throughput Mass Spetrometry system. The optimized conditions for sample desalting were determined to be a sample wash with water for 3 seconds at a flow rate of 1.5 mL/min and sample elution with a 2:1:1 solution of water:acetonitrile:acetone containing 5 mM ammonium acetate for 3.5 seconds at a flow rate of 1.25 mL/min. […]", "data": [{"smiles": "NC(=O)c1ccc[n+]([C@@H]2O[C@H](COP(=O)([O-])OP(=O)(O)OC[C@H]3O[C@@H](n4cnc5c(N)ncnc54)[C@H](O)[C@@H]3O)[C@@H](O)[C@H]2O)c1", "note": "[NAD+, nicotimamide adenine dinucleotide]", "values": [{"measurement": "Km", "value": "54 ± 1", "unit": "µM"}]}]}
